Results as given in patent US9708314B2, “Heterocyclic amide compound” (NISSAN CHEMICAL INDUSTRIES, LTD., priority 2013, dated 2017).

Columns and labels:
Type in all cases: in vivo
Scirpus juncoides = assay: Test Example 1: herbicidal activity, application before weed generation in submerged conditions; conditions: Application herbicide amount 320 g/ha; Seventeenth Table
In short: (§1)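 Water-diluted emulsion formulation is applied onto flood water (4 cm deep) covering alluvial soil on the day weed seeds are sown, after transplanting 2.5 leaf stage rice. Rates are expressed per hectare. Injury or control is graded 0–5 three weeks later.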

Monochoria vaginalis = assay: as above; conditions: Application herbicide amount 320 g/ha; Seventeenth Table
In short: as §1

[1] = system: Echinochloa oryzacola Vasing.; assay: as above; conditions: Application herbicide amount 320 g/ha; Seventeenth Table
In short: as §1

[2] = system: transplanted Oryza sativa; assay: Test Example 1: effect on crop, application before weed generation in submerged conditions; conditions: Application herbicide amount 320 g/ha; Seventeenth Table
In short: as §1

Digitaria ciliaris = assay: Test Example 4: herbicidal effect by application to foliage (diluvial soil, plastic box); conditions: application to foliage, application herbicide amount 320 g/ha
In short: (§2)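 Greenhouse plants (25° C. to 30° C., 14 d, diluvial soil) receive a foliar spray of water-diluted emulsifiable formulation at defined g/ha. Grading after 3 weeks uses a six-step herbicidal-ratio scale, with 4 covering 70% to <90% and 1 covering 5% to <20%.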

Setaria viridis = assay: as above; conditions: application to foliage, application herbicide amount 320 g/ha
In short: as §2

Abutilon theophrasti = assay: as above; conditions: application to foliage, application herbicide amount 320 g/ha
In short: as §2

Apera spica-venti. = assay: as above; conditions: application to foliage, application herbicide amount 320 g/ha
In short: as §2

Galium spurium = assay: as above; conditions: application to foliage, application herbicide amount 320 g/ha
In short: as §2

Veronica persica = assay: as above; conditions: application to foliage, application herbicide amount 320 g/ha
In short: as §2

Lolium multiflorum Lam. = assay: as above; conditions: application to foliage, application herbicide amount 320 g/ha
In short: as §2

Alopecurus myosuroides = assay: as above; conditions: application to foliage, application herbicide amount 320 g/ha
In short: as §2

Avena fatua = assay: as above; conditions: application to foliage, application herbicide amount 320 g/ha
In short: as §2

Chenopodium album = assay: as above; conditions: application to foliage, application herbicide amount 320 g/ha
In short: as §2

[3] = system: Echinochloa crus-galli var. crus-galli; assay: as above; conditions: application to foliage, application herbicide amount 320 g/ha
In short: as §2

| SMILES | B: Scirpus juncoides (herbicidal effect grade) (Scirpus juncoides) | C: Monochoria vaginalis (herbicidal effect grade) (Monochoria vaginalis) | A: Echinochloa oryzicola Vasing. (herbicidal effect grade) [1] | a: transplanted Oryza sativa (effect on crop grade) [2] | F (Digitaria ciliaris) herbicidal effect (Digitaria ciliaris) | G (Setaria viridis) herbicidal effect (Setaria viridis) | M (Abutilon theophrasti) herbicidal effect (Abutilon theophrasti) | L (Apera spica-venti.) herbicidal effect (Apera spica-venti.) | Q (Galium spurium) herbicidal effect (Galium spurium) | R (Veronica persica) herbicidal effect (Veronica persica) | K (Lolium multiflorum Lam.) herbicidal effect (Lolium multiflorum Lam.) | J (Alopecurus myosuroides) herbicidal effect (Alopecurus myosuroides) | I (Avena fatua) herbicidal effect (Avena fatua) | O (Chenopodium album) herbicidal effect (Chenopodium album) | H (Echinochloa crus-galli var. crus-galli) herbicidal effect [3] |
| --- | --- | --- | --- | --- | --- | --- | --- | --- | --- | --- | --- | --- | --- | --- | --- |
| CCS(=O)(=O)c1nnc2c(C(=O)Nc3nnc(C)o3)ccc(C(F)(F)F)n12 [1-041] | 3 (Herbicidal ratio of 40% or more and less than 70%) | 3 (Herbicidal ratio of 40% or more and less than 70%) | 3 (Herbicidal ratio of 40% or more and less than 70%) | 0 (Herbicidal ratio of 5% or less (almost no effect)) | 5 (Herbicidal ratio of 90% or more (almost completely withered)) | 4 (Herbicidal ratio of 70% or more and less than 90%) | 5 (Herbicidal ratio of 90% or more (almost completely withered)) | 4 (Herbicidal ratio of 70% or more and less than 90%) | 3 (Herbicidal ratio of 40% or more and less than 70%) | 4 (Herbicidal ratio of 70% or more and less than 90%) | 2 (Herbicidal ratio of 20% or more and less than 40%) | 1 (Herbicidal ratio of 5% or more and less than 20%) | 3 (Herbicidal ratio of 40% or more and less than 70%) | 5 (Herbicidal ratio of 90% or more (almost completely withered)) | 5 (Herbicidal ratio of 90% or more (almost completely withered)) |
| CCOC(=O)Cc1nnc2c(C(=O)Nc3nnc(C)o3)ccc(C(F)(F)F)n12 [1-042] | 2 (Herbicidal ratio of 20% or more and less than 40%) | 2 (Herbicidal ratio of 20% or more and less than 40%) | 2 (Herbicidal ratio of 20% or more and less than 40%) | 0 (Herbicidal ratio of 5% or less (almost no effect)) | 4 (Herbicidal ratio of 70% or more and less than 90%) | 3 (Herbicidal ratio of 40% or more and less than 70%) | 4 (Herbicidal ratio of 70% or more and less than 90%) | 2 (Herbicidal ratio of 20% or more and less than 40%) | 3 (Herbicidal ratio of 40% or more and less than 70%) | 4 (Herbicidal ratio of 70% or more and less than 90%) | 0 (Herbicidal ratio of 5% or less (almost no effect)) | 0 (Herbicidal ratio of 5% or less (almost no effect)) | 2 (Herbicidal ratio of 20% or more and less than 40%) | 5 (Herbicidal ratio of 90% or more (almost completely withered)) | 5 (Herbicidal ratio of 90% or more (almost completely withered)) |
| Cc1ccc(-c2nnc3c(C(=O)Nc4nnc(C)o4)ccc(C(F)(F)F)n23)cc1 [1-043] | 3 (Herbicidal ratio of 40% or more and less than 70%) | 3 (Herbicidal ratio of 40% or more and less than 70%) | 5 (Herbicidal ratio of 90% or more (almost completely withered)) | 3 (Herbicidal ratio of 40% or more and less than 70%) | 4 (Herbicidal ratio of 70% or more and less than 90%) | 3 (Herbicidal ratio of 40% or more and less than 70%) | 5 (Herbicidal ratio of 90% or more (almost completely withered)) | 1 (Herbicidal ratio of 5% or more and less than 20%) | 3 (Herbicidal ratio of 40% or more and less than 70%) | 4 (Herbicidal ratio of 70% or more and less than 90%) | 1 (Herbicidal ratio of 5% or more and less than 20%) | 1 (Herbicidal ratio of 5% or more and less than 20%) | 2 (Herbicidal ratio of 20% or more and less than 40%) | 5 (Herbicidal ratio of 90% or more (almost completely withered)) | 5 (Herbicidal ratio of 90% or more (almost completely withered)) |
| Cc1nnc(NC(=O)c2ccc(C(F)(F)F)n3c(-c4ccc(F)cc4)nnc23)o1 [1-044] | 3 (Herbicidal ratio of 40% or more and less than 70%) | 3 (Herbicidal ratio of 40% or more and less than 70%) | 5 (Herbicidal ratio of 90% or more (almost completely withered)) | 1 (Herbicidal ratio of 5% or more and less than 20%) | 4 (Herbicidal ratio of 70% or more and less than 90%) | 4 (Herbicidal ratio of 70% or more and less than 90%) | 5 (Herbicidal ratio of 90% or more (almost completely withered)) | 4 (Herbicidal ratio of 70% or more and less than 90%) | 3 (Herbicidal ratio of 40% or more and less than 70%) | 5 (Herbicidal ratio of 90% or more (almost completely withered)) | 2 (Herbicidal ratio of 20% or more and less than 40%) | 1 (Herbicidal ratio of 5% or more and less than 20%) | 1 (Herbicidal ratio of 5% or more and less than 20%) | 5 (Herbicidal ratio of 90% or more (almost completely withered)) | 5 (Herbicidal ratio of 90% or more (almost completely withered)) |
| COc1cccc(-c2nnc3c(C(=O)Nc4nnc(C)o4)ccc(C(F)(F)F)n23)c1 [1-046] | 3 (Herbicidal ratio of 40% or more and less than 70%) | 3 (Herbicidal ratio of 40% or more and less than 70%) | 5 (Herbicidal ratio of 90% or more (almost completely withered)) | 2 (Herbicidal ratio of 20% or more and less than 40%) | 5 (Herbicidal ratio of 90% or more (almost completely withered)) | 5 (Herbicidal ratio of 90% or more (almost completely withered)) | 5 (Herbicidal ratio of 90% or more (almost completely withered)) | 1 (Herbicidal ratio of 5% or more and less than 20%) | 2 (Herbicidal ratio of 20% or more and less than 40%) | 4 (Herbicidal ratio of 70% or more and less than 90%) | 0 (Herbicidal ratio of 5% or less (almost no effect)) | 0 (Herbicidal ratio of 5% or less (almost no effect)) | 1 (Herbicidal ratio of 5% or more and less than 20%) | 5 (Herbicidal ratio of 90% or more (almost completely withered)) | 5 (Herbicidal ratio of 90% or more (almost completely withered)) |
